The results in this text go back to ChEMBL document CHEMBL1153114, “Discovery of orally available integrin alpha5beta1 antagonists” (Bioorg Med Chem Lett, 2010).

Each structure is given as a SMILES string.

As a reminder, the IC50 is the concentration that gives 50% inhibition. As usually defined, the clearance is the volume of plasma or blood freed of the substance per unit of time. A lower clearance goes with inefficient removal. A word on the bioavailability: it is dose-corrected exposure relative to a reference, in per cent.

In one data set the target is Integrin alpha-5/beta-1 (Homo sapiens, UniProt P05556+P08648). Kind of data set: Binding affinity to integrin alpha5beta1 receptor by ELISA. In kind it is protein-complex assay. For orientation: ELISA stands for enzyme-linked immunosorbent assay.
Chain of Integrin alpha-5/beta-1 (P05556 21-798 limits assumed): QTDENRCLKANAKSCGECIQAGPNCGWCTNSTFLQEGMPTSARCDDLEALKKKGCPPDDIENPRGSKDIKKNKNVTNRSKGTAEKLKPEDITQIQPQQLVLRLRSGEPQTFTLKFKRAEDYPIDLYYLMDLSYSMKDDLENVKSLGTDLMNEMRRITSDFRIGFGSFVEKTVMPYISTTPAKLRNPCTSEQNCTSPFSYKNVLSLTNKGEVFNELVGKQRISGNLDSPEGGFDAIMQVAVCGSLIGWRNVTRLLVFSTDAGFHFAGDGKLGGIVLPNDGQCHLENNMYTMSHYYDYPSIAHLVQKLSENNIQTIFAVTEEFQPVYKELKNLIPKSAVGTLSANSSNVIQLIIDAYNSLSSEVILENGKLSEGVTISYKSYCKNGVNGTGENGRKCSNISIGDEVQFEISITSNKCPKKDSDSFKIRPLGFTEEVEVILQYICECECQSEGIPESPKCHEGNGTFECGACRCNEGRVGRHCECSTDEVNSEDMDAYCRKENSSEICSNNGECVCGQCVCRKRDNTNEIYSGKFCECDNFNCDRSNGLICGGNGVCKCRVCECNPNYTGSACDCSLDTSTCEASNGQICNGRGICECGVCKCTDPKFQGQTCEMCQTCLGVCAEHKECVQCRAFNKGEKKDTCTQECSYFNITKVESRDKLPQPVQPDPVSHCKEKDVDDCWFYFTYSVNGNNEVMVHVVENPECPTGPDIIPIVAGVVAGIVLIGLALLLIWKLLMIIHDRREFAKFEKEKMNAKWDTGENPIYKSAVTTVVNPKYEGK
Chain of Integrin alpha-5/beta-1 (P08648 42-894 limits assumed): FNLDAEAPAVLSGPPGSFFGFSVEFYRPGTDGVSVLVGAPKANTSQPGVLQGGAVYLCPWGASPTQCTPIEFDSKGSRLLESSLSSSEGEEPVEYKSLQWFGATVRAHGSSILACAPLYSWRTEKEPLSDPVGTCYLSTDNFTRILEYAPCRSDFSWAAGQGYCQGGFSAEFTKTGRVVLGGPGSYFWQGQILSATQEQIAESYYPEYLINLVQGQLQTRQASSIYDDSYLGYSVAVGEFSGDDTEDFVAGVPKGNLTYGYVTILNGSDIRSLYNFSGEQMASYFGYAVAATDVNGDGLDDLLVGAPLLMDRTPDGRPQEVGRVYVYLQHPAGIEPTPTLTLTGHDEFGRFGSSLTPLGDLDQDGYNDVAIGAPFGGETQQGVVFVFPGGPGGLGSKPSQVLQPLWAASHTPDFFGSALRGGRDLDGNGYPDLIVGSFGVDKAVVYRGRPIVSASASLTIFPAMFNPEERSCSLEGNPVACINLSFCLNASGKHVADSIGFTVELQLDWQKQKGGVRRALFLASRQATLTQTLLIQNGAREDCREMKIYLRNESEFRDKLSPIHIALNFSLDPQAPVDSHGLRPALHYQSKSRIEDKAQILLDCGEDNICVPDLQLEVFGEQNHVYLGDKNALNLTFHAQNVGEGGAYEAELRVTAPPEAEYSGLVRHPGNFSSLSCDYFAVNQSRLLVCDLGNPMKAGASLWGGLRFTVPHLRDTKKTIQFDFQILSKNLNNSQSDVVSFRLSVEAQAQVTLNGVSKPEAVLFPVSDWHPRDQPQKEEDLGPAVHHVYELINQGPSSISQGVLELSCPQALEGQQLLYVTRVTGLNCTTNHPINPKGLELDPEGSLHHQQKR
Chain of Integrin alpha-5/beta-1 (P08648 895-1049 limits assumed): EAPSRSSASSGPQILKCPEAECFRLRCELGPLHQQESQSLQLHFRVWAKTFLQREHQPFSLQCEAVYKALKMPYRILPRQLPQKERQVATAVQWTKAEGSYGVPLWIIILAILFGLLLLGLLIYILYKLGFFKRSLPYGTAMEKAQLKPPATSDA
Another data set concerns the target Integrin alpha-V/beta-3 (Homo sapiens, UniProt P05106+P06756). Kind of data set: Binding affinity to integrin […] receptor by ELISA. The class given is protein-complex assay.
Another data set concerns the target Integrin alpha-V/beta-5 (Homo sapiens, UniProt P06756+P18084). Put plainly: Binding affinity to integrin […] receptor by ELISA. The class given is protein-complex assay.
The target of data set [1] is Integrin alpha-IIb/beta-3 (Homo sapiens, UniProt P05106+P08514). Put plainly: Binding affinity to integrin alpha2bbeta3 receptor by ELISA. In kind it is protein-complex assay.
The nature of data set [2]: Clearance in Wistar rat at 1 mg/kg, iv. The class given is ADME, organism-based. Also on record: dose 1 mg/kg, route intravenous. Particulars: in vivo.
Data set [3] is described as follows: (§1) Terminal half life in Clearance in Wistar rat at 1 mg/kg, iv. In kind it is ADME, organism-based. Also on record: dose 1 mg/kg, route intravenous. Particulars: Wistar, in vivo, read-out: beta t1/2.
The nature of data set [4]: Oral bioavailability in Wistar rat at 10 mg/kg. In kind it is ADME, organism-based. The note with it: in vivo.
In a further data set the test system is Rattus norvegicus. The data set is described as §1. In kind it is ADME, organism-based. Also on record: dose 1 mg/kg, route intravenous. Particulars: in vivo.

Chain of Integrin alpha-V/beta-5 (P06756 31-889 limits assumed): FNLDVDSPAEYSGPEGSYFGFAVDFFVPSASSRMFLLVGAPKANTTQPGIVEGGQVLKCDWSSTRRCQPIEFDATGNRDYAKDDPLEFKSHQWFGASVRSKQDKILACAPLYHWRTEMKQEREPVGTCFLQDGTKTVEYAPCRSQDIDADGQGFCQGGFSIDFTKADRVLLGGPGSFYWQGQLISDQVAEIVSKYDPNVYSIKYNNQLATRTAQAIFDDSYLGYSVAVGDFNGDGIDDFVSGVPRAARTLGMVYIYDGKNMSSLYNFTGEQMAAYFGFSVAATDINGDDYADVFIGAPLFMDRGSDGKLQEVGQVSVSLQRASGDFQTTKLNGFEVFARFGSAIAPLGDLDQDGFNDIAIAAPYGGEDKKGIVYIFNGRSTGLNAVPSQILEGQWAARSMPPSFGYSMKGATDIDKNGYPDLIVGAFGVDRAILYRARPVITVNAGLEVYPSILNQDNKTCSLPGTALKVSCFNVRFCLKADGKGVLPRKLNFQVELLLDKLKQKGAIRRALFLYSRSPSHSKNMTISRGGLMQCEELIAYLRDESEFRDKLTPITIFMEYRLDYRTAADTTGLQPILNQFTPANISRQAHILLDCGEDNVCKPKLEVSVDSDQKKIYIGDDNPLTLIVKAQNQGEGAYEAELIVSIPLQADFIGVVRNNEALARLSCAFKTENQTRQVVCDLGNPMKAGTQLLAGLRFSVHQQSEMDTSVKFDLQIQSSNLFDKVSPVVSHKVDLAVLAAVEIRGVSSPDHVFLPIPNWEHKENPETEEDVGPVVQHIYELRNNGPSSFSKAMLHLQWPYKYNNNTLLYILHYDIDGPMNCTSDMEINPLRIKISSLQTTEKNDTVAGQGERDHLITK
Chain of Integrin alpha-V/beta-5 (P06756 891-1048 limits assumed): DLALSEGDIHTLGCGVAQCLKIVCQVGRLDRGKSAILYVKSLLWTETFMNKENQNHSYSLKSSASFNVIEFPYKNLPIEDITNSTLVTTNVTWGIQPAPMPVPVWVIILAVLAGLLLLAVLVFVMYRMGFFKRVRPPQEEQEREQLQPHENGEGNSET
Chain of Integrin alpha-V/beta-5 (P18084 24-799 limits assumed): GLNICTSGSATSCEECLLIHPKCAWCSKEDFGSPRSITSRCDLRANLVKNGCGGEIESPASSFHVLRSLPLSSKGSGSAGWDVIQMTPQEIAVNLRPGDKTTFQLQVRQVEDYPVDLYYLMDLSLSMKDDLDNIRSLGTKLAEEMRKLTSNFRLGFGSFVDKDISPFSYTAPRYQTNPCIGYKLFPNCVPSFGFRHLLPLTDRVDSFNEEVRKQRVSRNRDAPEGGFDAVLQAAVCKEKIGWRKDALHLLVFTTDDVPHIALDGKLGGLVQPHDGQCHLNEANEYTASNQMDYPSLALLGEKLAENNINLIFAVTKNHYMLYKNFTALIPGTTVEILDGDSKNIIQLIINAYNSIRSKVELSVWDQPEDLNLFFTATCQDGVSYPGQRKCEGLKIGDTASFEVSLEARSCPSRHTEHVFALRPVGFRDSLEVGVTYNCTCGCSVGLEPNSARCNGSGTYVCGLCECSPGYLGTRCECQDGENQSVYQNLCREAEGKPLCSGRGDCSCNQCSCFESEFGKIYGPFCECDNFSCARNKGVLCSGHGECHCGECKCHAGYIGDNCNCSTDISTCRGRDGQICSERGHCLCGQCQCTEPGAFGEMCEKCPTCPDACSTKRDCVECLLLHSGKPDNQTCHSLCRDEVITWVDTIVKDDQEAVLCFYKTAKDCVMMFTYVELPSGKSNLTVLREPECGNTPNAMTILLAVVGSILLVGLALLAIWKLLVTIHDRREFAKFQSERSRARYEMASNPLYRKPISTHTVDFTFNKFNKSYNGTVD
Chain of Integrin alpha-V/beta-3 (P05106 27-788 limits assumed): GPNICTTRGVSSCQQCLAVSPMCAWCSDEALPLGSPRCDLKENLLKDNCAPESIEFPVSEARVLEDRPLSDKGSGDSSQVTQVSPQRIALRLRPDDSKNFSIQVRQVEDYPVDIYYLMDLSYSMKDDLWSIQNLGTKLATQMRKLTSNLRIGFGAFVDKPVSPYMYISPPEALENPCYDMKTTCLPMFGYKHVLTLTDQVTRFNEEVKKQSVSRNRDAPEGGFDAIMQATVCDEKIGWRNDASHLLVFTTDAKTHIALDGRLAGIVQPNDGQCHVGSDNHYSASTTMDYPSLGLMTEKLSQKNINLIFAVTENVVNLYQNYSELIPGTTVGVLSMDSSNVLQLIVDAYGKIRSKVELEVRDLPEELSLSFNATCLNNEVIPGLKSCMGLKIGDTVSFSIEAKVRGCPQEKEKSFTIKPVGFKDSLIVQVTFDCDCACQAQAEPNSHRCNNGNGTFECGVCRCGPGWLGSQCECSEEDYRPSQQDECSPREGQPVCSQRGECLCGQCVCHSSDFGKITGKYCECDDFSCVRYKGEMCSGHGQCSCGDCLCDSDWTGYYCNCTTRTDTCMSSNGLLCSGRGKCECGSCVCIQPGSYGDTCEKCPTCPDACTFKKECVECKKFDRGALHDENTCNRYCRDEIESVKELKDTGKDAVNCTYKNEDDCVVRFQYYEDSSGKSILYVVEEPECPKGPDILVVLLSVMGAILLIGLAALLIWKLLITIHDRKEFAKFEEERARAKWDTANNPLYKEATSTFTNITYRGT
Chain of Integrin alpha-V/beta-3 (P06756 31-889 limits assumed): as the sequence (P06756 31-889 limits assumed) above
Chain of Integrin alpha-V/beta-3 (P06756 891-1048 limits assumed): as the sequence (P06756 891-1048 limits assumed) above

For the compound `Cc1ccnc(NCc2coc(-c3ccc(C[C@H](NC(=O)c4c(C)cc(C)cc4C)C(=O)O)cc3)c2)c1`, the IC50 came to 79 nM on Integrin alpha-5/beta-1, 2420 nM at Integrin alpha-V/beta-3, 2480 nM on Integrin alpha-V/beta-5 and 52000 nM in data set [1]. For the same compound, the clearance in data set [2] came out at 17 mL/min/kg. Besides, in data set [3], the half-life was found to be 1.47 h. The same compound gave a bioavailability in data set [4] of 26%.
As for `Cc1ccnc(NCc2csc(-c3ccc(C[C@H](NC(=O)c4c(C)cc(C)cc4C)C(=O)O)cc3)c2)c1`, the IC50 on Integrin alpha-5/beta-1 came out at 46 nM; on Integrin alpha-V/beta-3, 1730 nM; on Integrin alpha-V/beta-5, 3570 nM; in data set [1], 97000 nM.
The like results for `Cc1ccnc(NCc2cnc(-c3ccc(C[C@H](NC(=O)c4c(C)cc(C)cc4C)C(=O)O)cc3)s2)c1` were, in that order, 13 nM, 472 nM, 502 nM and 150000 nM.
`Cc1ccnc(NCC2CCN(c3ccc(CC(NC(=O)c4c(C)cc(C)cc4C)C(=O)O)cc3)CC2)c1` (racemic): the concentration for half-maximal inhibition (IC50) at Integrin alpha-5/beta-1 came out at 2.3 nM; at Integrin alpha-V/beta-3, 84 nM; at Integrin alpha-V/beta-5, 11000 nM; in data set [1] it was 23000 nM. In addition, in data set [2], the clearance is 70 mL/min/kg. In the data set with Rattus norvegicus, the “beta t1/2” value came to 1.1 h. The same compound yielded a bioavailability in data set [4] of 16%.
As for `Cc1ccnc(NCC2CC(=O)N(c3ccc(C[C@H](NC(=O)c4c(C)cc(C)cc4C)C(=O)O)cc3)C2)c1` (some centres undefined), the IC50 on Integrin alpha-5/beta-1 came out at 1.6 nM; on Integrin alpha-V/beta-3, 319 nM; at Integrin alpha-V/beta-5, 1340 nM.
As for `Cc1ccnc(NCc2cc(-c3ccc(C[C@H](NC(=O)c4c(C)cc(C)cc4C)C(=O)O)cc3)on2)c1`, the IC50 on Integrin alpha-5/beta-1 amounted to 6.1 nM; on Integrin alpha-V/beta-3 it was 261 nM; on Integrin alpha-V/beta-5, 257 nM; in data set [1] it was 118000 nM. In data set [2], this compound returned a clearance of 9 mL/min/kg. For the same compound, the half-life in data set [3] was 2.3 h. The bioavailability in data set [4] came out at 11%.
As for `Cc1ccnc(NCc2ccc(-c3ccc(CC(NC(=O)c4c(C)cc(C)cc4C)C(=O)O)cc3)cc2)c1` (racemic), the IC50 was 65 nM on Integrin alpha-5/beta-1, 2920 nM at Integrin alpha-V/beta-3, more than 20 nM at Integrin alpha-V/beta-5 and 165000 nM in data set [1].
Take `Cc1ccnc(NCc2sccc2-c2ccc(C[C@H](NC(=O)c3c(C)cc(C)cc3C)C(=O)O)cc2)c1`: the IC50 at Integrin alpha-5/beta-1 came out at 887 nM; on Integrin alpha-V/beta-3, 16000 nM; at Integrin alpha-V/beta-5 it was 17000 nM; in data set [1], 77000 nM.
Turning to `Cc1ccnc(NCc2cn(-c3ccc(C[C@H](NC(=O)c4c(C)cc(C)cc4C)C(=O)O)cc3)nn2)c1`, the IC50 is 1.5 nM at Integrin alpha-5/beta-1, 100 nM on Integrin alpha-V/beta-3, 347 nM on Integrin alpha-V/beta-5 and 89000 nM in data set [1].
On the same counts, the results for `Cc1ccnc(NCc2cccc(-c3ccc(CC(NC(=O)c4c(C)cc(C)cc4C)C(=O)O)cc3)c2)c1` (racemic) are 87 nM, 890 nM, more than 20000 nM and 180000 nM.
Consider `Cc1cc(C)c(C(=O)N[C@@H](Cc2ccc(OCCCNc3ccccn3)cc2)C(=O)O)c(C)c1`, for which the concentration for half-maximal inhibition (IC50) at Integrin alpha-5/beta-1 was 2.5 nM; at Integrin alpha-V/beta-3 it was 703 nM.
For `Cc1cc(C)c(C(=O)N[C@@H](CNC(=O)CO[C@H]2C[C@H](CNc3ccccn3)N(C(=O)CC(C)(C)C)C2)C(=O)O)c(C)c1`, the IC50 on Integrin alpha-5/beta-1 was 1.6 nM; at Integrin alpha-V/beta-3, 16000 nM; on Integrin alpha-V/beta-5, 90700 nM; in data set [1] it was more than 50000 nM.
